Experiments:
Test in all cases: Kinase selectivity, DiscoverX scanMAX Kinase assay panel (% control)
Assay type in all cases: binding
[1] = target: T1, kinases of the scanMAX Kinase assay panel (Homo sapiens, UniProt O75116); settings: kinase ROCK2; 1 uM in DMSO
T1 construct: purchased DiscoverX Co. (contract measurement) scanMAX Kinase assay panel
Method in brief: (§1)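 Percent of control computed as (compound − positive control)/(negative control − positive control) × 100, DMSO defining 100% and positive control 0%. Each panel kinase exposed to 1 uM compound; values under 35% taken to mean the compound acts on that kinase.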

[2] = target: T2, kinases of the scanMAX Kinase assay panel (Homo sapiens, UniProt Q02750); settings: MEK1; 1 uM
T2 construct: purchased DiscoverX Co. (contract measurement) scanMAX Kinase assay panel
T2 sequence (Q02750 whole entry): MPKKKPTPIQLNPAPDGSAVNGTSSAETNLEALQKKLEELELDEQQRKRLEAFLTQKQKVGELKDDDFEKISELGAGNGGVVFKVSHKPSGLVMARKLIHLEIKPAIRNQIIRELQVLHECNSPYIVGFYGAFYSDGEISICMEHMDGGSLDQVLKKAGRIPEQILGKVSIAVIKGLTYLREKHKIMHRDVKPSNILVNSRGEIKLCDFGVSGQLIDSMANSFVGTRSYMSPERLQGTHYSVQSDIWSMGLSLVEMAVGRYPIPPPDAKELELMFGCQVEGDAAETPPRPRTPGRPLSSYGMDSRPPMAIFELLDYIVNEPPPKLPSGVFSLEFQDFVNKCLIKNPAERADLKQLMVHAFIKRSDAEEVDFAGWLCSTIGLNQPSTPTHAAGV
Method in brief: as §1

[3] = target: T3, kinases of the scanMAX Kinase assay panel (Homo sapiens, UniProt P00519); settings: 1 uM
T3 construct: purchased DiscoverX Co. (contract measurement) scanMAX Kinase assay panel
T3 sequence (P00519 whole entry): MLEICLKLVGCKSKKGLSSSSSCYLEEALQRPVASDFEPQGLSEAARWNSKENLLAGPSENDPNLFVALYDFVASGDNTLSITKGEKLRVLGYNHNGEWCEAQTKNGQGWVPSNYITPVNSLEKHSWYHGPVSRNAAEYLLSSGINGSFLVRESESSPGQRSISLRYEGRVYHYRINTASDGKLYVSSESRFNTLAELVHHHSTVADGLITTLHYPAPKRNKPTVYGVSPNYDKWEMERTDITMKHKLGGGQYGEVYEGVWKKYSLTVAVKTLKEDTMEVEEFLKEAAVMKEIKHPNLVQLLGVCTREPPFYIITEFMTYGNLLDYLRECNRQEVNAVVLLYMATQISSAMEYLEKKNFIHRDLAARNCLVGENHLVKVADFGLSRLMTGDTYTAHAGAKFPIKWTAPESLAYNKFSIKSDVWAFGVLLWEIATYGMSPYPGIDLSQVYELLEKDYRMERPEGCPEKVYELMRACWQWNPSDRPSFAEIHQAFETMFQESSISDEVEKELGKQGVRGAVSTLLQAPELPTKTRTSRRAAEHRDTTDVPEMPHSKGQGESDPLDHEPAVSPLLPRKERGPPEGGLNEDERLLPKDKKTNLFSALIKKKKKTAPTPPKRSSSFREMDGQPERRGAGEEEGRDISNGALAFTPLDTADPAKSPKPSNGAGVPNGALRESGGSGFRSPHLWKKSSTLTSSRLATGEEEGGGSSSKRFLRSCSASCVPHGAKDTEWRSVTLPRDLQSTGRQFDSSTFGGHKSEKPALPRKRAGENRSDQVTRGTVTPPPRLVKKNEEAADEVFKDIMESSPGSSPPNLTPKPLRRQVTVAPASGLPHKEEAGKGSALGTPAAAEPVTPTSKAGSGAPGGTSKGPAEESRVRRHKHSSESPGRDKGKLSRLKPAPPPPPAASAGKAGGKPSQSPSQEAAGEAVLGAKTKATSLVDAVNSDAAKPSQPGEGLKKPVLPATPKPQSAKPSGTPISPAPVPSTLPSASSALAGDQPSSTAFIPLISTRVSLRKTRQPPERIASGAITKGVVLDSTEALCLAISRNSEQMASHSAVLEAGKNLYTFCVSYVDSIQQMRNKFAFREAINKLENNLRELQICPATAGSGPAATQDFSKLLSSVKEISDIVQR
Method in brief: as §1

[4] = target: T4, kinases of the scanMAX Kinase assay panel (Homo sapiens, UniProt P36888, D835Y); settings: FLT3(D835Y); 1 uM
T4 construct: purchased DiscoverX Co. (contract measurement) scanMAX Kinase assay panel
T4 sequence (P36888 27-993 D835Y): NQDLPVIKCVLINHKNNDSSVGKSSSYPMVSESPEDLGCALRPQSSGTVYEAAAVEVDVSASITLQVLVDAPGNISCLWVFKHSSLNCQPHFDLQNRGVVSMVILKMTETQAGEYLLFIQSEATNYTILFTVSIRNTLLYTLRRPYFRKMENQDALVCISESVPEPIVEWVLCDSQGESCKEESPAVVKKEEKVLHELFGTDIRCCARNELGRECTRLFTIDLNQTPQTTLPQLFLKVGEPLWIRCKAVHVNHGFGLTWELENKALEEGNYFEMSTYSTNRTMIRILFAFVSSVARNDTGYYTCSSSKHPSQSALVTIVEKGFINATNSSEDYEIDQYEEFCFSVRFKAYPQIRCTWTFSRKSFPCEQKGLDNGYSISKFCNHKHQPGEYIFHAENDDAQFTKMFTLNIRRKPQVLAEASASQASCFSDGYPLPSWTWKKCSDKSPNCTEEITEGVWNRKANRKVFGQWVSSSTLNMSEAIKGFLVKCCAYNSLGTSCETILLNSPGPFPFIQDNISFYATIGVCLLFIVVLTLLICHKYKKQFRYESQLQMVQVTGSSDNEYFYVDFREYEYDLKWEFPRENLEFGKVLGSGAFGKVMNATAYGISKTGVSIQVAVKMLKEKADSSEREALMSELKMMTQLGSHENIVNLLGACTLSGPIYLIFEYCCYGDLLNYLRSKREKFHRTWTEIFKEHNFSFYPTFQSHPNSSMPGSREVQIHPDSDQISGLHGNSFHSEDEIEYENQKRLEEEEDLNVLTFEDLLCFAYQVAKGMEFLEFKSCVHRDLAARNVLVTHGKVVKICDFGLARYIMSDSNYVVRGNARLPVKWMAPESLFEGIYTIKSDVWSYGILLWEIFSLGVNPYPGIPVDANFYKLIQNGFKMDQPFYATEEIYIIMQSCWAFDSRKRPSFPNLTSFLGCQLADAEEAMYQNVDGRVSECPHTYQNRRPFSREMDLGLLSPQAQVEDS
Method in brief: as §1

[5] = target: T5, kinases of the scanMAX Kinase assay panel (Homo sapiens, UniProt P32298); settings: GRK4; 1 uM
T5 construct: purchased DiscoverX Co. (contract measurement) scanMAX Kinase assay panel
T5 sequence (P32298 whole entry): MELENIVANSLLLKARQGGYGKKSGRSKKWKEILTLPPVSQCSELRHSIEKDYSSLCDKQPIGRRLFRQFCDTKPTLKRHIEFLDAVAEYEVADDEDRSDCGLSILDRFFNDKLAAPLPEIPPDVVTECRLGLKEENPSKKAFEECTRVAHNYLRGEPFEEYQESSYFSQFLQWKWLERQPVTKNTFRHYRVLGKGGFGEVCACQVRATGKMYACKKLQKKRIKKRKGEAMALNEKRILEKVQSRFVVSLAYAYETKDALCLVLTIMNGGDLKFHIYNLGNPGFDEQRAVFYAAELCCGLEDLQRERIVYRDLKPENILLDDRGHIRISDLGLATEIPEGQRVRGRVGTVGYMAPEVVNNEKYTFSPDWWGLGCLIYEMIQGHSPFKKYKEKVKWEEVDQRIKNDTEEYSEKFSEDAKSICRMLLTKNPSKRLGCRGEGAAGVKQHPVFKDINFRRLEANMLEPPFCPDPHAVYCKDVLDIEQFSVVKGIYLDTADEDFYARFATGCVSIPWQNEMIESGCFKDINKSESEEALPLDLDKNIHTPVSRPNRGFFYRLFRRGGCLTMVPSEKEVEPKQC
Method in brief: as §1

[6] = target: T6, kinases of the scanMAX Kinase assay panel (Homo sapiens, UniProt Q92918); settings: HPK1; 1 uM
T6 construct: purchased DiscoverX Co. (contract measurement) scanMAX Kinase assay panel
T6 sequence (Q92918 whole entry): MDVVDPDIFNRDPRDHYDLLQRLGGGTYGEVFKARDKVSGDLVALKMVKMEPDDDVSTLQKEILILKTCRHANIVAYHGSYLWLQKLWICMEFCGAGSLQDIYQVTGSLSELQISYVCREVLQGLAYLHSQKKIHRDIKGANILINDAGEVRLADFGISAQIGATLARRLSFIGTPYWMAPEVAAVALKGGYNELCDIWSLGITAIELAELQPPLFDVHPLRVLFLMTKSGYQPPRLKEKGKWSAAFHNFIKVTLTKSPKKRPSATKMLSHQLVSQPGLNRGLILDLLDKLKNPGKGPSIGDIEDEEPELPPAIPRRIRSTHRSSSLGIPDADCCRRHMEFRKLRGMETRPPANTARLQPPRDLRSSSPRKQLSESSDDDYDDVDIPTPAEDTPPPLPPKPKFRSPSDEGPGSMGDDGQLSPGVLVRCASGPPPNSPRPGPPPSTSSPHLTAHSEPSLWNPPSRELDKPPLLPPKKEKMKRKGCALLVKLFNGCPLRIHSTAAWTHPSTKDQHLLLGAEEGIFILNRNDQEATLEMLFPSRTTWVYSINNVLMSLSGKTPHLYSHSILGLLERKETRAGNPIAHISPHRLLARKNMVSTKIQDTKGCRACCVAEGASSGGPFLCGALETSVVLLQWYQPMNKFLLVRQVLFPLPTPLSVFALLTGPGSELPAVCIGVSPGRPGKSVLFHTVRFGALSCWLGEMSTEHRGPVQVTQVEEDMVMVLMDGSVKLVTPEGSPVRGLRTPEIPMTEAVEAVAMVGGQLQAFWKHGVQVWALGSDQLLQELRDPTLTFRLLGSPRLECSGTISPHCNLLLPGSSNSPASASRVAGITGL
Method in brief: as §1

[7] = target: T7, kinases of the scanMAX Kinase assay panel (Homo sapiens, UniProt Q59H18); settings: kinase TNNI3K; 1 uM in DMSO
T7 construct: purchased DiscoverX Co. (contract measurement) scanMAX Kinase assay panel
T7 sequence (Q59H18 1-835): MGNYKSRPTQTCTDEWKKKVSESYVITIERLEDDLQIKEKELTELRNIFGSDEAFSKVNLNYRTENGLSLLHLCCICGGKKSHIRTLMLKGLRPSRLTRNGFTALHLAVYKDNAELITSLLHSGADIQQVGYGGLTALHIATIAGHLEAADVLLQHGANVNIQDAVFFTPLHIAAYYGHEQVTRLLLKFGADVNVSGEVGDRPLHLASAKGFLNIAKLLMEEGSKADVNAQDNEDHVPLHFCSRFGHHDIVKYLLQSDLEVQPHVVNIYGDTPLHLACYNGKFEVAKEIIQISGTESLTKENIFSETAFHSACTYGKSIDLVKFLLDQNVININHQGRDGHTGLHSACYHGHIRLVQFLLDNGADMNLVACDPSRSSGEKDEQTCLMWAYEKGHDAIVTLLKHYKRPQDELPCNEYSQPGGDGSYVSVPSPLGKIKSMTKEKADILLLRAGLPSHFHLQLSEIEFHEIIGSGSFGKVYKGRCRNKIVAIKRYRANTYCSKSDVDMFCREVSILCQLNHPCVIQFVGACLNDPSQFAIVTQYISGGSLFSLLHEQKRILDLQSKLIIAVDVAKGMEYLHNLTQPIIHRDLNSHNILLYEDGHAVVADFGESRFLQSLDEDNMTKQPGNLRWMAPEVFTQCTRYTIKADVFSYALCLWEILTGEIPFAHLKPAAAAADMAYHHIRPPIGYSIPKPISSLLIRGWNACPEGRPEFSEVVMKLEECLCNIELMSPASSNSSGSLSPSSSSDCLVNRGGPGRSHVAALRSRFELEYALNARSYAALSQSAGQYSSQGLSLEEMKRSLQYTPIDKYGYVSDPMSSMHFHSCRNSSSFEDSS
Method in brief: as §1

T1 sequence (O75116 whole entry): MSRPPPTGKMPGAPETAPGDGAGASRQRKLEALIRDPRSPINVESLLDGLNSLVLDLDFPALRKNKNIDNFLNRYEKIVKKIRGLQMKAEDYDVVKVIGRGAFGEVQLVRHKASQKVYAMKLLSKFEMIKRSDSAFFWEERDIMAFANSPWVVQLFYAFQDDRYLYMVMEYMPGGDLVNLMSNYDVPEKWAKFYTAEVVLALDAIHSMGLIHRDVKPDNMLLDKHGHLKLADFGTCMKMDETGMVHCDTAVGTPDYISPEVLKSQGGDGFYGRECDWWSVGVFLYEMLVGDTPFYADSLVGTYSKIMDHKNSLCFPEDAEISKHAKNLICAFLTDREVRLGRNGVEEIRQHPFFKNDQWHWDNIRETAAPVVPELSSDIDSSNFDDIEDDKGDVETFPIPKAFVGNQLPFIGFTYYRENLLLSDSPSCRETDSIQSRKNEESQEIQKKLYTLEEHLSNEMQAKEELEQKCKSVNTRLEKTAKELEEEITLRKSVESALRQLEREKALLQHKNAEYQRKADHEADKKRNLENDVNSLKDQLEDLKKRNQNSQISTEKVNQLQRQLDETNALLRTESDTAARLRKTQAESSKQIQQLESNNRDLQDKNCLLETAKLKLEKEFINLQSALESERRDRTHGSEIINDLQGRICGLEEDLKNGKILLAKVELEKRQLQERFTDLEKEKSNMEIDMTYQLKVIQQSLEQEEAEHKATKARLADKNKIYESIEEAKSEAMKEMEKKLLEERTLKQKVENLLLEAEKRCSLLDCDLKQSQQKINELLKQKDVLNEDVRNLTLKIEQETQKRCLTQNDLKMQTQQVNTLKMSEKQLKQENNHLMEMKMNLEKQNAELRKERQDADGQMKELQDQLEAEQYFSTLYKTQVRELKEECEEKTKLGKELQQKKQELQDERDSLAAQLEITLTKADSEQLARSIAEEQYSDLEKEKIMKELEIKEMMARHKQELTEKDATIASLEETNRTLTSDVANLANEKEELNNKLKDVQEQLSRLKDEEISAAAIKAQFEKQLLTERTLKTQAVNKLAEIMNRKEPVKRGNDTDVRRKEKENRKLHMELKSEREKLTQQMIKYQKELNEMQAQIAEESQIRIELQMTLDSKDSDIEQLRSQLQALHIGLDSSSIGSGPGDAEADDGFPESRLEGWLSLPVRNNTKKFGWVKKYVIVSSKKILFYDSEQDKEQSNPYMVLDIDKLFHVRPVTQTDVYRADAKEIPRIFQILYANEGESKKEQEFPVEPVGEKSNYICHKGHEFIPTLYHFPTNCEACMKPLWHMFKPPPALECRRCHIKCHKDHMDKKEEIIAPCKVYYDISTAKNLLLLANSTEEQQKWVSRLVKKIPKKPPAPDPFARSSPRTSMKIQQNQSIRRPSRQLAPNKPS

CNc1nc(Nc2ccc(C(=O)N3CCOCC3)cc2OC)nc2[nH]cc(C#N)c12 [Example 1, 2-((2-methoxy-4-(morpholine-4-carbonyl)phenyl)amino)-4-(methylamino)-7H-pyrrolo[2,3-d]pyrimidine-5-carbonitrile]
remaining binding at 1 µM [1]: 56% | remaining binding at 1 µM [2]: 89% | remaining binding at 1 µM ([3]; ABL1-nonphosphorylated): 92% | remaining binding at 1 µM ([3]; ABL1-phosphorylated): 88% | remaining binding at 1 µM [4]: 82% | remaining binding at 1 µM [5]: 92% | remaining binding at 1 µM [6]: 79% | remaining binding at 1 µM [7]: 99%

CC1(Nc2nc(Nc3cnn([C@H]4CCN(C5COC5)C[C@@H]4F)c3Cl)nc3[nH]cc(C#N)c23)CC1 [Example 52, 2-((5-chloro-1-((3S,4S)-3-fluoro-1-(oxetane-3-yl)piperidine-4-yl)-1H-pyrazole-4-yl)amino)((1-methylcyclopropyl)amino)-7H-pyrrolo[2,3-d]pyrimidine-5-carbonitrile]
remaining binding at 1 µM [1]: 23% | remaining binding at 1 µM [2]: 0.1% | remaining binding at 1 µM ([3]; ABL1-nonphosphorylated): 6.4% | remaining binding at 1 µM ([3]; ABL1-phosphorylated): 1.8% | remaining binding at 1 µM [4]: 0% | remaining binding at 1 µM [5]: 1.6% | remaining binding at 1 µM [6]: 4.3% | remaining binding at 1 µM [7]: 93%

CCNc1nc(Nc2ccc(C(=O)N3CCC(N4CCOCC4)CC3)cc2OC)nc2[nH]cc(C(F)(F)F)c12 [Example 104, (4-((4-(ethylamino)-5-(trifluoromethyl)-7H-pyrrolo[2,3-d]pyrimidine-2-yl)amino)-3-methoxyphenyl)(4-morpholinopiperidine-1-yl)methanone]
remaining binding at 1 µM [1]: 100% | remaining binding at 1 µM [2]: 86% | remaining binding at 1 µM ([3]; ABL1-nonphosphorylated): 91% | remaining binding at 1 µM ([3]; ABL1-phosphorylated): 63% | remaining binding at 1 µM [4]: 14% | remaining binding at 1 µM [5]: 100% | remaining binding at 1 µM [6]: 100% | remaining binding at 1 µM [7]: 100%
